Measured values taken from BindingDB's records for doi:10.1016/j.bmcl.2005.06.036 (Unit&#233, 2005).

Legend:
[1] = biological target: HIV-1 integrase (Human immunodeficiency virus 1); experiment: In vitro inhibitory concentration against HIV-1 recombinant integrase activity in strand transfer assay
[2] = biological target: HIV-1 integrase (Human immunodeficiency virus 1); experiment: In vitro inhibitory concentration against HIV-1 recombinant integrase activity in standard 3'-processing assay

For O=C(c1ccc(O)cc1)c1ccc2ccc(/C=C/c3ccc(O)c(O)c3)nc2c1O [{2-[(E)-2-(3,4-Dihydroxy-phenyl)-vinyl]-8-hydroxy-quinolin-7-yl}-(4-hydroxy-phenyl)-methanone], the IC50 [1] was > 100 µM and the IC50 [2] was > 100 µM.
